Source: PubChem BioAssay AID1259407 (Chemical Carcinogenesis Research Information System (CCRIS), 2018)
Calls of active or inactive are those of the source. How the calls were made is not given here.

Tested on: CCRIS mutagenicity, Ames/micronucleus/aberration tests
Assay: CCRIS mutagenicity studies
[1] = Test System: AMES SALMONELLA TYPHIMURIUM, Strain/Indicator: TA98, Metabolic Activation: NONE, Method: PREINCUBATION
[2] = Test System: AMES SALMONELLA TYPHIMURIUM, Strain/Indicator: TA100, Metabolic Activation: NONE, Method: PREINCUBATION

Measured: mutagenic call

O=C(Cl)C(Cl)c1ccccc1 (centres undefined)
active: [1] active; positive | Test System: AMES SALMONELLA TYPHIMURIUM, Strain/Indicator: TA98, Metabolic Activation: RAT LIVER S-9, PCB, Method: PREINCUBATION active; positive | [2] active; positive | Test System: AMES SALMONELLA TYPHIMURIUM, Strain/Indicator: TA100, Metabolic Activation: RAT LIVER S-9, PCB, Method: PREINCUBATION active; positive | Test System: AMES SALMONELLA TYPHIMURIUM, Strain/Indicator: TA104, Metabolic Activation: NONE, Method: PREINCUBATION active; positive | Test System: AMES SALMONELLA TYPHIMURIUM, Strain/Indicator: TA104, Metabolic Activation: RAT LIVER S-9, PCB, Method: PREINCUBATION active; positive | Test System: E.COLI, Strain/Indicator: WP2 UVRA, Metabolic Activation: NONE, Method: PREINCUBATION active; positive | Test System: E.COLI, Strain/Indicator: WP2 UVRA, Metabolic Activation: RAT LIVER S-9, PCB, Method: PREINCUBATION active; positive

O=[N+]([O-])c1ccc2ccc3cccc4c3c2c1C1OC41 (centres undefined)
inactive: Test System: AMES SALMONELLA TYPHIMURIUM, Strain/Indicator: TA98, Metabolic Activation: RAT, LIVER, S-9, PHENOBARBITAL AND 5,6-BENZOFLAVONE, Method: PREINCUBATION inactive; negative | Test System: AMES SALMONELLA TYPHIMURIUM, Strain/Indicator: TA100, Metabolic Activation: RAT, LIVER, S-9, PHENOBARBITAL AND 5,6-BENZOFLAVONE, Method: PREINCUBATION inactive; negative
active: Test System: AMES SALMONELLA TYPHIMURIUM, Strain/Indicator: TA98(1,8-DNP6), Metabolic Activation: RAT, LIVER, S-9, PHENOBARBITAL AND 5,6-BENZOFLAVONE, Method: PREINCUBATION active; positive | Test System: AMES SALMONELLA TYPHIMURIUM, Strain/Indicator: TA98(NR), Metabolic Activation: NONE, Method: PREINCUBATION active; positive | [1] active; positive | [2] active; positive | Test System: CHINESE HAMSTER OVARY, Strain/Indicator: CHO (HGPRT)/6-THIOGUANINE, Metabolic Activation: NONE, Method: STANDARD PLATE active; positive | Test System: CHINESE HAMSTER OVARY, Strain/Indicator: CHO (HGPRT)/6-THIOGUANINE, Metabolic Activation: RAT, LIVER, S-9, AROCLOR 1254, Method: STANDARD PLATE active; positive | Test System: UDS RODENT HEPATOCYTES, Strain/Indicator: THY INCORP, Metabolic Activation: NONE, Method: AUTORADIOGRAPHY active; positive

C1=Cc2c3c1cccc3cc1ccc3ccccc3c21
inactive: Test System: AMES SALMONELLA TYPHIMURIUM, Strain/Indicator: TA98, Metabolic Activation: RAT, LUNG, MICROSOMES, Method: STANDARD PLATE inactive; negative
active: Test System: AMES SALMONELLA TYPHIMURIUM, Strain/Indicator: TA98, Metabolic Activation: HUMAN, LIVER, MICROSOMES, Method: STANDARD PLATE active; positive | Test System: AMES SALMONELLA TYPHIMURIUM, Strain/Indicator: TA98, Metabolic Activation: RAT, LIVER, HEPATOCYTES, Method: PREINCUBATION active; positive | Test System: AMES SALMONELLA TYPHIMURIUM, Strain/Indicator: TA98, Metabolic Activation: RAT, LIVER, MICROSOMES, AROCLOR 1254, Method: STANDARD PLATE active; positive | Test System: AMES SALMONELLA TYPHIMURIUM, Strain/Indicator: TA98, Metabolic Activation: RAT, LIVER, MICROSOMES, Method: STANDARD PLATE active; positive | Test System: AMES SALMONELLA TYPHIMURIUM, Strain/Indicator: TA98, Metabolic Activation: RAT, LUNG, MICROSOMES, AROCLOR 1254, Method: STANDARD PLATE active; positive | Test System: CHINESE HAMSTER OVARY, Strain/Indicator: V-79/6-THIOGUANINE, Metabolic Activation: RAT, LIVER, S-9, AROCLOR 1254, Method: FLASK ASSAY active; positive | Test System: CHINESE HAMSTER OVARY, Strain/Indicator: V-79/6-THIOGUANINE, Metabolic Activation: SHE CELL MEDIATED, Method: FLASK ASSAY active; positive | Test System: CHINESE HAMSTER V-79, Strain/Indicator: V-79/6-THIOGUANINE, Metabolic Activation: RAT, LIVER, S-9, AROCLOR 1254, Method: SUSPENSION/PLATE active; positive | Test System: CHINESE HAMSTER V-79, Strain/Indicator: V-79/6-THIOGUANINE, Metabolic Activation: SHE CELL-MEDIATED, Method: SUSPENSION/PLATE active; positive | Test System: MOUSE LYMPHOMA, Strain/Indicator: L5178Y (TK+/TK-), Metabolic Activation: RAT, LIVER, S-9, AROCLOR 1254, Method: SUSPENSION/PLATE active; positive | Test System: UDS RAT HEPATOCYTES, Strain/Indicator: THY INCORP, Metabolic Activation: NONE, Method: LIQUID SCINTILLATION COUNTING active; positive

c1ccc2c(OC[C@H]3CO3)cccc2c1
active: Test System: AMES SALMONELLA TYPHIMURIUM, Strain/Indicator: TA100, Metabolic Activation: NONE, Method: STANDARD PLATE active; positive

Cc1ccc(N)cc1N=[N+]([O-])c1cc(N)ccc1C
active: Test System: AMES SALMONELLA TYPHIMURIUM, Strain/Indicator: TA100, Metabolic Activation: RAT, LIVER, S-9, PHENOBARBITAL AND 5,6-BENZOFLAVONE, Method: SUSPENSION/PLATE active; positive
inactive: Test System: AMES SALMONELLA TYPHIMURIUM, Strain/Indicator: TA98, Metabolic Activation: NONE, Method: SUSPENSION/PLATE inactive; negative | Test System: AMES SALMONELLA TYPHIMURIUM, Strain/Indicator: TA98, Metabolic Activation: RAT, LIVER, S-9, PHENOBARBITAL AND 5,6-BENZOFLAVONE, Method: SUSPENSION/PLATE inactive; negative | Test System: AMES SALMONELLA TYPHIMURIUM, Strain/Indicator: TA100, Metabolic Activation: NONE, Method: SUSPENSION/PLATE inactive; negative
